# Measured values: ChEMBL document CHEMBL4699621, “Novel piperazine-2,5-dione analogs bearing 1H-indole: Synthesis and biological effects” (Bioorg Med Chem Lett, 2020)
# Columns and labels:
# [1] = system: Mus musculus; test: Analgesic activity in mouse assessed as inhibition of acetic acid-induced writhing at 10 mg/kg, ip measured after 60 mins relative to control; assay type: functional; set-up: scale not given: the % may be the effect or the level left; settings: 1 h
# [2] = system: Mus musculus; test: Anti-inflammatory activity against dimethylbenzene-induced ear edema mouse model assessed as inhibition of ear edema at 10 mg/kg, ip measured after 60 mins (reference value: 6.93 +/- 1.05 mg); assay type: functional; settings: 1 h
# [3] = system: Mus musculus; test: Anti-inflammatory activity against dimethylbenzene-induced ear edema mouse model assessed as inhibition of ear edema at 10 mg/kg, ip measured after 60 mins relative to control; assay type: functional; set-up: scale not given: the % may be the effect or the level left; settings: 1 h
# [4] = system: Mus musculus; test: Antidepressant activity in mouse assessed as decrease in immobility time at 10 mg/kg, ip by forced swimming test (reference value: 147.8 +/- 10.2 sec); assay type: functional
# [5] = target: 5-HT3 receptor (Cavia porcellus); test: Antagonist activity against 5-H3R in guinea pig ileum preincubated for 10 mins followed by 2-methyl 5-HT addition; settings: read-out: pA2 (converted)
# [6] = system: Mus musculus; test: Antidepressant activity in mouse assessed as decrease in immobility time at 10 mg/kg, ip by forced swimming test relative to control; assay type: functional; set-up: scale not given: the % may be the effect or the level left
Structure (SMILES),Activity [1] [%],Activity [2] [mg],Activity [3] [%],Time [4] [s],Kb [5] [nM],Activity [6] [%]
Cc1ccc2cc(CC3NC(=O)C(C)NC3=O)[nH]c2c1 (stereo not given),79.3,1.12,83.3,58.2,,
COc1ccc2cc(CC3NC(=O)C(C)NC3=O)[nH]c2c1 (stereo not given),65,1.5,,77.2,,
CC1NC(=O)C(Cc2cc3cc([N+](=O)[O-])ccc3[nH]2)NC1=O (stereo not given),66.8,1.61,,88.6,,
CC1NC(=O)C(Cc2cc3ccccc3[nH]2)NC1=O (stereo not given),51.6,2.4,,93.3,,
CC1NC(=O)C(Cc2cc3ccc(N(C)C)cc3[nH]2)NC1=O (stereo not given),60.1,2.47,,95.1,,
Cc1ccccc1N1CCN(C(=O)C2Cc3ccccc3N2C)CC1 (stereo not given),,,,,31.6,
COc1ccc2c(c1)c(CC(=O)O)c(C)n2C(=O)c1ccc(Cl)cc1 [INDOMETHACIN],88.7,1.05,84.8,,,
CC1NC(=O)C(Cc2cc3ccc(Br)cc3[nH]2)NC1=O (stereo not given),62.8,1.72,,76.8,,
CC1NC(=O)C(Cc2cc3cc(Cl)c(Cl)cc3[nH]2)NC1=O (stereo not given),82.5,0.79,87.2,42.5,,71.2
CC1NC(=O)C(Cc2cc3cc(C(F)(F)F)ccc3[nH]2)NC1=O (stereo not given),88.9,0.45,93.5,44,,70.2
CC1NC(=O)C(Cc2cc3cc(N(C)C)ccc3[nH]2)NC1=O (stereo not given),50.9,2.02,,91.3,,
CC1NC(=O)C(Cc2cc3cc(Br)ccc3[nH]2)NC1=O (stereo not given),70.2,1.42,,79.4,,
CC1NC(=O)C(Cc2cc3cc(Cl)ccc3[nH]2)NC1=O (stereo not given),87.5,0.7,89.8,64.8,,
CNCCC(Oc1ccc(C(F)(F)F)cc1)c1ccccc1 (stereo not given) [FLUOXETINE],,,,47.4,,67.9
Cc1ccc2[nH]c(CC3NC(=O)C(C)NC3=O)cc2c1 (stereo not given),55.2,1.04,85,53.5,,
COc1ccc2[nH]c(CC3NC(=O)C(C)NC3=O)cc2c1 (stereo not given),53.2,1.41,,67.3,,
CC1NC(=O)C(Cc2cc3cc(F)ccc3[nH]2)NC1=O (stereo not given),90.2,0.61,91.2,53.1,,
CC1NC(=O)C(Cc2cc3ccc(F)cc3[nH]2)NC1=O (stereo not given),77.8,0.69,90,52.8,,
Cc1cc2cc(CC3NC(=O)C(C)NC3=O)[nH]c2cc1C (stereo not given),54.3,2.83,,87.2,,
COc1cc2cc(CC3NC(=O)C(C)NC3=O)[nH]c2cc1OC (stereo not given),58.9,3.03,,98,,
CC1NC(=O)C(Cc2cc3ccc(Cl)cc3[nH]2)NC1=O (stereo not given),65.4,0.89,87.2,66.8,,
